Measured values as given in patent publication US20240343704A1, “HALO-SUBSTITUTED AMINO PYRIDINE COMPOUNDS AS INHIBITORS OF THE HAEMATOPOIETIC PROGENITOR KINASE 1 (HPK1)” (priority 2021, published 2024).

Legend:
Lck (h) = Lck (h) (Homo sapiens, UniProt P06239); assay: Lck Human  Kinase Enzymatic Radiometric Assay; assay type: biochemical; settings: for LcK IC50/HPK IC50 selectivity: ratio of Lck IC50 to HPK1 IC50; for IC50: read-out: Lck IC50 nM Range*
Description: Lck (h) is incubated with 50 mM Tris pH 7.5, 0.1 mM EGTA, 0.1 mM Na3VO4, 250 uM KVEKIGEGTYGVVYK (Cdc2 peptide), 10 mM MgAcetate and [gamma-33P]-ATP (specific activity and concentration as required). The reaction is initiated by the addition of the Mg/ATP mix. After incubation for 40 minutes at RT, the reaction is stopped by the addition of phosphoric acid to a concentration of 0.5%. 10 uL of the reaction is then spotted onto a P30 filtermat and washed four times for 4 minutes in 0.425% phosphoric acid and once in methanol prior to drying and scintillation counting. For more details on the kinase assay procedures see: Gao, Y. et. al.; Biochem J., 451 (2): 313-328, 2013.

[1] = target: T1, Recombinant (1-346) HPK1 (h) (Homo sapiens, UniProt Q92918); assay: HPK1 Human STE Kinase Enzymatic Radiometric Assay; assay type: biochemical; settings: read-out: HPK1 IC50 nM Range*
T1 construct: Recombinant (1-346) HPK1 (h) is incubated with 8 mM MOPS pH 7.0
T1 sequence (Q92918 1-346): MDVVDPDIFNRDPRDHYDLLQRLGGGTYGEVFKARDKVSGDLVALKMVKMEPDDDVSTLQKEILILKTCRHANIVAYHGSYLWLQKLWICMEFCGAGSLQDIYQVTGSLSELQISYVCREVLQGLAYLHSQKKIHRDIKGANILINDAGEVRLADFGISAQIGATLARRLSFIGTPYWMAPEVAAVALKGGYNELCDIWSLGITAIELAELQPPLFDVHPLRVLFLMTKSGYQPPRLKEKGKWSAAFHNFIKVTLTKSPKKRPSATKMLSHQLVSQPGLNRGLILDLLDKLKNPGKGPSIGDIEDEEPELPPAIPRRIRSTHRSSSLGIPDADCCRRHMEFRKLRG
Description: A stock solution of 10 mM of test compound is prepared in DMSO. The compound plate was prepared by 3-fold and 9-point serial dilutions. […] The reaction is initiated by The addition of the Mg/ATP mix. After incubation for 40 minutes at RT, the reaction is stopped by the addition of phosphoric acid to a concentration of 0.5%.

Lck (h), sequence (P06239 whole entry): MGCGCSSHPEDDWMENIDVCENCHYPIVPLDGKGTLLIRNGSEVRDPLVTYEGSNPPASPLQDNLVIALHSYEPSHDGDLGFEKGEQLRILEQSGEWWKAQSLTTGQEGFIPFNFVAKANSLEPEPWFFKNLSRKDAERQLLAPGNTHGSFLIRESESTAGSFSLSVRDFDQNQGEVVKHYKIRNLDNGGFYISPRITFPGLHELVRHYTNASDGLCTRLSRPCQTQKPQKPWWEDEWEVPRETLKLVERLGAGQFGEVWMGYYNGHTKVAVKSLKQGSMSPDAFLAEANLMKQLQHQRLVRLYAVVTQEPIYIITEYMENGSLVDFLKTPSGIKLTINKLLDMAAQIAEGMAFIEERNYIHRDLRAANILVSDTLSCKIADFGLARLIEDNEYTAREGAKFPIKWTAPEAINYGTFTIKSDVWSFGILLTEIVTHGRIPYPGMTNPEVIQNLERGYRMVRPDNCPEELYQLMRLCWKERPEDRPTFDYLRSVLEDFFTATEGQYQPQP

Compound	LcK IC50/HPK IC50 selectivity (Lck (h))	IC50 [1]	IC50 (Lck (h))
Nc1nc(F)c(-c2ccc(N3C[C@H]4COC[C@H]4C3)cc2)cc1-c1ccc2c(c1)CCNC2=O	323	–	–
CN1[C@@H]2CC[C@H]1CN(c1ccc(-c3cc(-c4ccc5c(c4)CCNC5=O)c(N)nc3F)cc1)C2 [I-13, 6-(2-amino-6-fluoro-5-(4-((1R,5S)-8-methyl-3,8-diazabicyclo[3.2.1]octan-3-yl)phenyl)pyridin-3-yl)-3,4-dihydroisoquinolin-1(2H)-one]	–	0.1 to 10 nM	101 to 1000 nM
Nc1nc(F)c(-c2ccc(C3CCNCC3)cc2)cc1-c1ccc2c(c1)CCNC2=O [drawing 2673]	1603	–	–
Nc1nc(F)c(-c2cnn(C3CCOCC3)c2)cc1-c1ccc2c(c1)CCNC2=O [drawing 2675]	2000	–	–
Nc1nc(F)c(-c2ccc(N3CCCC3)cc2)cc1-c1ccc2c(c1)CCNC2=O [drawing 2677]	769	–	–
Nc1nc(F)c(-c2ccc(N3CCCCC3)cc2)cc1-c1ccc2c(c1)CCNC2=O [drawing 2679]	1250	–	–
Nc1nc(F)c(-c2ccc(N3C[C@@H]4CCO[C@@H]4C3)cc2)cc1-c1ccc2c(c1)CCNC2=O [drawing 2683]	1429	–	–
Nc1nc(F)c(-c2ccc(N3CCNCC3)c(C(F)(F)F)c2)cc1-c1ccc2c(c1)CCNC2=O [drawing 2685]	2580	–	–
Nc1nc(F)c(-c2ccc3c(c2)OCCCO3)cc1-c1ccc2c(c1)CCNC2=O [drawing 2687]	1429	–	–
Nc1nc(F)c(-c2ccc(N3CCN4CCCC4C3)cc2)cc1-c1ccc2c(c1)CCNC2=O (stereo not drawn) [drawing 2689]	1480	–	–
Nc1nc(F)c(-c2ccc(N3CCCN4CCCC4C3)cc2)cc1-c1ccc2c(c1)CCNC2=O (stereo not drawn) [drawing 2691]	1073	–	–
Nc1nc(F)c(-c2ccc(C3CCNCC3)cc2)cc1-c1cc2c(cc1F)C(=O)NCC2 [drawing 2693]	704	–	–
Nc1ncc(-c2ccc(C3CCNCC3)cc2)cc1-c1ccc2c(c1)CCNC2=O [reference compound]	45	–	–
Nc1ncc(-c2cnn(C3CCOCC3)c2)cc1-c1ccc2c(c1)CCNC2=O [reference compound]	0.2	–	–
Nc1ncc(-c2ccc(N3CCCC3)cc2)cc1-c1ccc2c(c1)CCNC2=O [reference compound]	69	–	–
Nc1ncc(-c2ccc(N3CCCCC3)cc2)cc1-c1ccc2c(c1)CCNC2=O [reference compound]	79	–	–
Nc1ncc(-c2ccc(N3C[C@H]4COC[C@H]4C3)cc2)cc1-c1ccc2c(c1)CCNC2=O [reference compound]	51	–	–
Nc1ncc(-c2ccc(N3C[C@@H]4CCO[C@@H]4C3)cc2)cc1-c1ccc2c(c1)CCNC2=O [reference compound]	34	–	–
Nc1ncc(-c2ccc(N3CCNCC3)c(C(F)(F)F)c2)cc1-c1ccc2c(c1)CCNC2=O [reference compound]	145	–	–
Nc1ncc(-c2ccc3c(c2)OCCCO3)cc1-c1ccc2c(c1)CCNC2=O [reference compound]	485	–	–
Nc1ncc(-c2ccc(N3CCN4CCCC4C3)cc2)cc1-c1ccc2c(c1)CCNC2=O (stereo not drawn) [reference compound]	20	–	–
Nc1ncc(-c2ccc(N3CCCN4CCCC4C3)cc2)cc1-c1ccc2c(c1)CCNC2=O (stereo not drawn) [reference compound]	92	–	–
Nc1ncc(-c2ccc(C3CCNCC3)cc2)cc1-c1cc2c(cc1F)C(=O)NCC2 [reference compound]	27	–	–

Now from value to compound:

LcK IC50/HPK IC50 selectivity (Lck (h))	IC50 [1]	IC50 (Lck (h))	Compound
–	11 to 100 nM	101 to 1000 nM	CN1CCN(c2ccc(-c3cnc(N)c(-c4ccc5c(c4)CCNC5=O)c3F)cc2)CC1 [I-1, 6-(2-amino-4-fluoro-5-(4-(4-methylpiperazin-1-yl)phenyl)pyridin-3-yl)-3,4-dihydroisoquinolin-1(2H)-one]
–	11 to 100 nM	> 1000 nM	Nc1ncc(-c2ccc(N3CCOCC3)cc2)c(F)c1-c1ccc2c(c1)CCNC2=O [I-2, 6-(2-amino-4-fluoro-5-(4-morpholinophenyl)pyridin-3-yl)-3,4-dihydroisoquinolin-1(2H)-one]
–	11 to 100 nM	> 1000 nM	CC(C)S(=O)(=O)c1ccc(-c2cnc(N)c(-c3ccc4c(c3)CCNC4=O)c2F)cc1 [I-3, 6-(2-amino-4-fluoro-5-(4-(isopropylsulfonyl)phenyl)pyridin-3-yl)-3,4-dihydroisoquinolin-1(2H)-one]
–	11 to 100 nM	> 1000 nM	CC(C)[C@@H]1CN(c2ccc(-c3cnc(N)c(-c4ccc5c(c4)CCNC5=O)c3F)cc2)CCO1 [I-4, (R)-6-(2-amino-4-fluoro-5-(4-(2-isopropylmorpholino)phenyl)pyridin-3-yl)-3,4-dihydroisoquinolin-1(2H)-one]
–	11 to 100 nM	> 1000 nM	CC(C)[C@H]1CN(c2ccc(-c3cnc(N)c(-c4ccc5c(c4)CCNC5=O)c3F)cc2)CCO1 [I-5, (S)-6-(2-amino-4-fluoro-5-(4-(2-isopropylmorpholino)phenyl)pyridin-3-yl)-3,4-dihydroisoquinolin-1(2H)-one]
–	11 to 100 nM	> 1000 nM	CC(C)[C@@H]1CN(c2ccc(-c3cnc(N)c(-c4ccc5c(c4)CCNC5=O)c3F)c(F)c2)CCO1 [I-6, (R)-6-(2-amino-4-fluoro-5-(2-fluoro-4-(2-isopropylmorpholino)phenyl)pyridin-3-yl)-3,4-dihydroisoquinolin-1(2H)-one]
–	101 to 1000 nM	> 1000 nM	CC(C)[C@H]1CN(c2ccc(-c3cnc(N)c(-c4ccc5c(c4)CCNC5=O)c3F)c(F)c2)CCO1 [I-7, (S)-6-(2-amino-4-fluoro-5-(2-fluoro-4-(2-isopropylmorpholino)phenyl)pyridin-3-yl)-3,4-dihydroisoquinolin-1(2H)-one]
–	0.1 to 10 nM	> 1000 nM	CN1CCN(c2ccc(-c3cc(-c4ccc5c(c4)CCNC5=O)c(N)nc3F)cc2)CC1 [I-8, 6-(2-amino-6-fluoro-5-(4-(4-methylpiperazin-1-yl)phenyl)pyridin-3-yl)-3,4-dihydroisoquinolin-1(2H)-one]
–	0.1 to 10 nM	> 1000 nM	CC(C)[C@@H]1CN(c2ccc(-c3cc(-c4ccc5c(c4)CCNC5=O)c(N)nc3F)cc2)CCO1 [I-9, (R)-6-(2-amino-6-fluoro-5-(4-(2-isopropylmorpholino)phenyl)pyridin-3-yl)-3,4-dihydroisoquinolin-1(2H)-one]
–	11 to 100 nM	> 1000 nM	CC(C)[C@H]1CN(c2ccc(-c3cc(-c4ccc5c(c4)CCNC5=O)c(N)nc3F)cc2)CCO1 [I-10, (S)-6-(2-amino-6-fluoro-5-(4-(2-isopropylmorpholino)phenyl)pyridin-3-yl)-3,4-dihydroisoquinolin-1(2H)-one]
–	0.1 to 10 nM	> 1000 nM	CC(C)[C@@H]1CN(c2ccc(-c3cc(-c4ccc5c(c4)CCNC5=O)c(N)nc3F)c(F)c2)CCO1 [I-11, (R)-6-(2-amino-6-fluoro-5-(2-fluoro-4-(2-isopropylmorpholino)phenyl)pyridin-3-yl)-3,4-dihydroisoquinolin-1(2H)-one]
–	11 to 100 nM	> 1000 nM	CC(C)[C@H]1CN(c2ccc(-c3cc(-c4ccc5c(c4)CCNC5=O)c(N)nc3F)c(F)c2)CCO1 [I-12, (S)-6-(2-amino-6-fluoro-5-(2-fluoro-4-(2-isopropylmorpholino)phenyl)pyridin-3-yl)-3,4-dihydroisoquinolin-1(2H)-one]
–	0.1 to 10 nM	> 1000 nM	CN1C[C@H]2C[C@@]2(c2ccc(-c3cc(-c4ccc5c(c4)CCNC5=O)c(N)nc3F)cc2)C1 [I-14, 6-(2-amino-6-fluoro-5-(4-((1R,5S)-3-methyl-3-azabicyclo[3.1.0]hexan-1-yl)phenyl)pyridin-3-yl)-3,4-dihydroisoquinolin-1(2H)-one]
–	0.1 to 10 nM	> 1000 nM	CC(C)S(=O)(=O)c1ccc(-c2cc(-c3ccc4c(c3)CCNC4=O)c(N)nc2F)cc1 [I-15, 6-(2-amino-6-fluoro-5-(4-(isopropylsulfonyl)phenyl)pyridin-3-yl)-3,4-dihydroisoquinolin-1(2H)-one]
–	–	> 1000 nM	Nc1nc(F)c(-c2ccc(N3CCOCC3)cc2)cc1-c1ccc2c(c1)CCNC2=O [I-16, 6-(2-amino-6-fluoro-5-(4-morpholinophenyl)pyridin-3-yl)-3,4-dihydroisoquinolin-1(2H)-one]
–	–	> 1000 nM	Nc1nc(F)c(-c2ccc(N3CCN(CCCC(F)F)CC3)cc2)cc1-c1cc2c(cc1F)C(=O)NCC2 [I-441, 6-(2-amino-5-(4-(4-(4,4-difluorobutyl)piperazin-1-yl)phenyl)-6-fluoropyridin-3-yl)-7-fluoro-3,4-dihydroisoquinolin-1(2H)-one]
